Measured values reported in US20120082684A1, “DIAGNOSIS AND TREATMENT OF CELL PROLIFERATION AND DIFFERENTIATION DISORDERS BASED ON THE FMN2 GENE” (UNIVERSITY COURT OF THE UNIVERSITY OF DUNDEE, priority 2009, published 2012).

Assays:
[1] = tested on: NARF2 cells; assay: Rescue of FMN2 depletion by co-transfection of siRNAs, Western blot (FIG. 14); assay type: cell-based, human; conditions: co-transfection of both PA28γ siRNA and Skp2 siRNA with FMN2 siRNA, with/without p14ARF induction
Method: (§1) siRNA experiments. siRNA duplex oligo ribonucleotides were synthesised by MWG and transfected using Interferin (Polyplus) as per manufacturers instruction. In brief, cells were plated the day before transfection at the concentration of 2×10^5 cells per well in 6 well plates. The following day, cells were transfected with the final concentration of 5 nM of siRNA oligoribonucleotides in fresh media, final volume of 2.2 ml. Cells were incubated for a further 48 hours prior to harvesting. IPTG was added for 24 hours unless otherwise stated. siRNA sequences are described here (Control: 5′-CAGUCGCGUUUGCGACUGG-3′, FMN2-5′-GUAUACCAGGUCUCCUCAA-3′, PA28γ-5′-GAAUCAAUAUGUCACUCUA-3′, Skp2-5′-ACUCAAGUCCAGCCAUAAG-3′).).
FIG. 14. […] Detection of protein levels for endogenous FMN2, Skp2, PA28G, p21, p14ARF and Actin following transfection of NARF2 cells using either siRNAs for FMN2 (see FIG. 15A for location of siRNA target sequence), PA28γ, Skp2 and control (Control) with/without p14ARF induction (+/blank). An equivalent amount of NARF2 extract was loaded for each lane and the proteins separated by SDS PAGE, electroblotted and probed both with a monoclonal anti-PA28γ and polyclonal anti-FMN2, anti-Skp2, anti-p21, anti-p14ARF and with anti-Actin as a loading control.

[2] = tested on: NARF2 cells; assay: siRNA knock-down in NARF2 cells, protein levels by blot (FIG. 10); assay type: cell-based, human; conditions: 5 nM siRNA, 48 hours, with or without 24 hours IPTG
Method: FIG. 10. siRNA approach for FMN2. NARF2 cells were treated with Control, DNA-PK, or FMN2 siRNA and harvested 48 hours with or without 24 hours IPTG induction.
siRNA duplex oligonucleotides were synthesised by MWG and transfected using Interferin (Polyplus) as per manufacturers instruction. In brief, cells were plated the day before transfection at the concentration of 2×10^5 cells per well in 6 well plates. The following day, cells were transfected with the final concentration of 5 nM of siRNA oligonucleotides in fresh media, final volume of 2.2 ml. Cells were incubated for additional 48 hours prior to harvesting. IPTG was added for 24 hours unless otherwise stated. siRNA sequences were described here (Control: CAGUCGCGUUUGCGACUGG, FMN2-GUAUACCAGGUCUCCUCAA). MG132 was purchased from Merck Chemicals and used at the final concentration of 50 μM.
To analyse the function of the FMN2 protein in cells, we designed five siRNAs to suppress FMN2 expression. […] (FIG. 10a). […] In contrast, siRNA knock-down of DNA-PK causes a decrease in the levels of both puma and p21 (FIG. 10b).
as §1

| Substance | rescue of p21 inactivation following FMN2 depletion [1] | FMN2 expression after siRNA [2] | effect on Hdm2 [2] | effect on p53 [2] | p21 level [2] | puma level [2] |
| --- | --- | --- | --- | --- | --- | --- |
| 5′-ACUCAAGUCCAGCCAUAAG-3′ [Skp2 siRNA] | partially rescued | – | – | – | – | – |
| 5′-GAAUCAAUAUGUCACUCUA-3′ [PA28γ siRNA] | partially rescued | – | – | – | – | – |
| 5′-GUAUACCAGGUCUCCUCAA-3′ [FMN2 siRNA] | – | successful in suppressing FMN2 expression | didn't see any effect | didn't see any effect | severely reduced | does not affect puma levels |
